The experiment concerns Aspergillus niger ATCC 6275. As to the kind of experiment: Determination of synergistic antimicrobial activity in MIC (96-well microplate, optical density at 620 nm). The class given is cell-based. The settings on record: for microbial growth percentage: 32.5° C., 24 to 48 hours. The text has this: FIC Index=(MICa with B/MICa)+(MICb with A/MICb)
with: • MICa with B: minimum concentration of product A in the combination A+B which makes it possible to obtain an inhibitory effect. • MICb with A: minimum concentration of product B in the combination A+B which makes it possible to obtain the inhibitory effect. • MICa: minimum inhibitory concentration of product A alone. • MICb: minimum inhibitory concentration of product B alone.
As regards the combinations tested, MICa with b and MICb with a are the respective concentrations of A and of B in the combinations which make it possible to obtain a microbial growth percentage of less than or equal to 25%.
When the FIC index value is less than or equal to 1, it is considered that the combination of test compounds has a synergistic effect.
The microbial strain Aspergillus niger ATCC 6275, and a double-concentration Sabouraud broth liquid culture medium supplemented with polyoxyethylenated (20 OE) sorbitan monopalmitate (Tween 40 from Croda) and Phytagel® BioReagent were used (i.e. a mixture of 5 g of Phytagel+0.6 g Tween 40+60 g of Sabouraud broth).
A 96-well microplate at an incubation temperature of 32.5° C. is used.
The incubation time of the microplate is from 24 to 48 hours aerobically.
A 10% (weight/volume) stock solution was prepared by mixing 1 g of compound in 9 ml of aqueous 1‰ agar solution. Successive dilutions were made with the 1‰ agar solution. • Test of compounds A and B alone
50 μL of each of the daughter solutions obtained containing compound A or B are added to the microplate wells. 100 μL of Sabouraud liquid nutrient broth inoculated with the strain Aspergillus niger and 50 μL of aqueous 1‰ agar solution are also added thereto. • Test of compounds A and B as a mixture
50 μL of each of the daughter solutions obtained containing compound A and 50 μL of each of the daughter solutions obtained containing compound B are added to the microplate wells. 100 μL of Sabouraud liquid nutrient broth inoculated at double concentration with the strain Aspergillus niger are also added thereto.
A positive microbial growth control was also prepared. The positive microbial growth control corresponds to a mixture of 100 μL of aqueous 1‰ agar solution with 100 μL of Sabouraud liquid nutrient broth inoculated at double concentration with the strain Aspergillus niger in the absence of compounds A and B.
An absorbance control was performed in parallel on compounds A and B alone. This control corresponds to 100 μL of double concentration sterile Sabouraud liquid nutrient broth+100 μL of double concentration compound A or B.
In the three cases (absorbance control, growth control and test), the final volume present in each of the microplate wells is 200 μL.
In the two cases (test and control), the inoculum represents the concentration of the strain Aspergillus niger present in the final volume of the wells (200 μL) and is between 2 and 6×10^5 cfu/ml of Aspergillus niger.
The minimum inhibitory concentration (MIC) of each compound A and B alone and in combination was determined in a known manner by means of optical density measurements at a wavelength of 620 nm.

The mark [1] stands for this setting: first concentration giving growth <= 25%.

The values below come from patent US20210338550A1, “ANTIMICROBIAL MIXTURE CONTAINING 4-(3-ETHOXY-4-HYDROXYPHENYL)BUTAN-2-ONE AND CHLORPHENESIN, AND COSMETIC COMPOSITION CONTAINING SAME” (L'OREAL, priority 2017, published 2021).

As for `CCOc1cc(CCC(C)=O)ccc1O` [A, 4-(3-ethoxy-4-hydroxyphenyl)butan-2-one], the microbial growth percentage (0.0625 weight % A alone (0 B)) is 79%, the microbial growth percentage (0.125 weight % A alone (0 B)) turned out to be 41% and the microbial growth percentage (0.25 weight % A alone (0 B)) stood at 5%. For the same compound, under setting [1], the “% MIC of A alone” value stood at 0.25%.

On to `OCC(O)COc1ccc(Cl)cc1` (centres unmarked) [B, 3-(4-chlorophenoxy)-1,2-propanediol], for which the microbial growth percentage (0.0125 weight % B alone (0 A)) is reported as 71%, the microbial growth percentage (0.25 weight % B alone (0 A)) is 38% and the microbial growth percentage (0.5 weight % B alone (0 A)) is on record as 1%. Moreover, the “% MIC of B alone” value under setting [1] stood at 0.5%.
